Source: ChEMBL document CHEMBL6153074, “Discovery of novel dual tubulin and MMPs inhibitors for the treatment of lung cancer and overcoming drug resistance” (Eur J Med Chem, 2025)
Calls of active or inactive are those of the source. The calls are words filed in the database; no cut-off is given here.

Columns and labels:
NCI-H460 = test: Antiproliferative activity against human NCI-H460 cells by CCK8 assay
MCF7 = test: Antiproliferative activity against human MCF7 cells by CCK8 assay
MDA-MB-231 = test: Antiproliferative activity against human MDA-MB-231 cells by CCK8 assay
A549 [1] = test: cells; settings: Homo sapiens
Description: Antiproliferative activity against human A549 cells by CCK8 assay

[2] = molecular target: 72 kDa type IV collagenase (Homo sapiens, UniProt P08253); test: Inhibition of MMP-2 (unknown origin) using fluorogenic-McaPro-Leu-Gly-Leu-Dpa-Ala-Arg-NH2 as substrate
Stromelysin-1 = Stromelysin-1 (Homo sapiens, UniProt P08254); test: Inhibition of MMP-3 (unknown origin) using fluorogenic-McaPro-Leu-Gly-Leu-Dpa-Ala-Arg-NH2 as substrate
[3] = molecular target: Matrix metalloproteinase-9 (Homo sapiens, UniProt P14780); test: Inhibition of MMP-9 (unknown origin) using fluorogenic-McaPro-Leu-Gly-Leu-Dpa-Ala-Arg-NH2 as substrate
[4] = Antiproliferative activity against human L02 cells by CCK8 assay; assay type: toxicity, cell-based
[5] = Selectivity index, ratio of IC50 for antiproliferative activity against human L02 cells to IC50 for antiproliferative activity against human A549 cells; assay type: toxicity, cell-based; settings: L02 cells and A549 cells, read-out: Ratio IC50
[6] = Antiproliferative activity against human MCF-10A cells by CCK8 assay; assay type: toxicity, cell-based
[7] = Selectivity index, ratio of IC50 for antiproliferative activity against human MCF-10A cells to IC50 for antiproliferative activity against human MCF7 cells; assay type: toxicity, cell-based; settings: MCF-10A cells and MCF7 cells, read-out: Ratio IC50
Tubulin (Homo sapiens) [8] = molecular target: T1, Tubulin (Homo sapiens) (UniProt P68371+Q9H4B7+P0DPH7+P68366+Q13509+Q71U36+P04350+Q3ZCM7+P07437+P68363+Q9BQE3+Q6PEY2+Q13885+Q9BVA1+Q9BUF5); test: Disruption of microtubule network in human A549 cells assessed as cell disorganisation at 5 uM incubated for 24 hrs by immunofluorescence based analysis
Tubulin (Homo sapiens) [9] = molecular target: T1, Tubulin (Homo sapiens); test: Disruption of microtubule network in human A549 cells assessed as contraction towards cell border at 5 uM incubated for 24 hrs by immunofluorescence based analysis
A549 [10] = test: Anti-migration activity in human A549 cells assessed as migration rate at 0.5 uM incubated for 24 hrs by wound healing assay (reference value: 73.94 %); assay type: functional
A549 [11] = test: Induction of apoptosis in human A549 cells assessed as viable cells at 0.5 uM incubated for 24 hrs by Annexin V-FITC/PI staining based flow cytometry (reference value: 95.82 %); assay type: functional; settings: read-out: Activity
A549 [12] = test: Induction of apoptosis in human A549 cells assessed as early apoptotic cells at 0.5 uM incubated for 24 hrs by Annexin V-FITC/PI staining based flow cytometry (reference value: 3.04 %); assay type: functional
A549 [13] = test: Induction of apoptosis in human A549 cells assessed as late apoptotic cells at 0.5 uM incubated for 24 hrs by Annexin V-FITC/PI staining based flow cytometry (reference value: 1.01 %); assay type: functional
A549 [14] = test: Induction of apoptosis in human A549 cells assessed as necrotic cells at 0.5 uM incubated for 24 hrs by Annexin V-FITC/PI staining based flow cytometry (reference value: 0.13 %); assay type: functional
A549 [15] = test: Induction of cell cycle arrest in human A549 cells assessed as accumulation at G1 phase at 0.5 uM incubated for 24 hrs by PI staining based flow cytometry (reference value: 58.67 %); assay type: functional
A549 [16] = test: Induction of cell cycle arrest in human A549 cells assessed as accumulation at G2 phase at 0.5 uM incubated for 24 hrs by PI staining based flow cytometry (reference value: 3.37 %); assay type: functional
A549 [17] = test: Induction of cell cycle arrest in human A549 cells assessed as accumulation at S phase at 0.5 uM incubated for 24 hrs by PI staining based flow cytometry (reference value: 37.95 %); assay type: functional
A549 [18] = test: Induction of mitochondrial membrane potential loss in human A549 cells at 0.5 uM incubated for 24 hrs by JC-1 dye based analysis (reference value: 3.14 %); assay type: functional
A549 [19] = test: Induction of intracellular ROS accumulation in human A549 cells at 0.5 uM incubated for 24 hrs by DCFH-DA dye based flow cytometry (reference value: 4.96 %); assay type: functional
A549 [20] = test: Antitumor activity against human A549 cells xenografted in BALB/c mouse at 20 mg/kg, ip for 3 weeks administered on every 2 days relative to control; assay type: functional; settings: A549, 504 h, read-out: TGI

Sequence of Stromelysin-1 (P08254 whole entry): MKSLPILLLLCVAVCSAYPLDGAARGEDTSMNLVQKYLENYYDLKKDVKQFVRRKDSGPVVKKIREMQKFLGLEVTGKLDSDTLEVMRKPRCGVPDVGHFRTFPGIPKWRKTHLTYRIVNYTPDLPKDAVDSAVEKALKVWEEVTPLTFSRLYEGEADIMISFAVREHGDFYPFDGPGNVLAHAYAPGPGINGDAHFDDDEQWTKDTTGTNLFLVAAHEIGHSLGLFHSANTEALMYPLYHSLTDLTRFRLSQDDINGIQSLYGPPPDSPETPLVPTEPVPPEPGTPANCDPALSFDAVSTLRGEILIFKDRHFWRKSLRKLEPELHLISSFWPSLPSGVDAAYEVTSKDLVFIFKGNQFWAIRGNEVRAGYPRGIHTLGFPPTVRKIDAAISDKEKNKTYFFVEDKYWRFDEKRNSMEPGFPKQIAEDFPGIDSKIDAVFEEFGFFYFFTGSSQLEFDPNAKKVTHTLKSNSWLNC
Sequence of Matrix metalloproteinase-9 (P14780 whole entry): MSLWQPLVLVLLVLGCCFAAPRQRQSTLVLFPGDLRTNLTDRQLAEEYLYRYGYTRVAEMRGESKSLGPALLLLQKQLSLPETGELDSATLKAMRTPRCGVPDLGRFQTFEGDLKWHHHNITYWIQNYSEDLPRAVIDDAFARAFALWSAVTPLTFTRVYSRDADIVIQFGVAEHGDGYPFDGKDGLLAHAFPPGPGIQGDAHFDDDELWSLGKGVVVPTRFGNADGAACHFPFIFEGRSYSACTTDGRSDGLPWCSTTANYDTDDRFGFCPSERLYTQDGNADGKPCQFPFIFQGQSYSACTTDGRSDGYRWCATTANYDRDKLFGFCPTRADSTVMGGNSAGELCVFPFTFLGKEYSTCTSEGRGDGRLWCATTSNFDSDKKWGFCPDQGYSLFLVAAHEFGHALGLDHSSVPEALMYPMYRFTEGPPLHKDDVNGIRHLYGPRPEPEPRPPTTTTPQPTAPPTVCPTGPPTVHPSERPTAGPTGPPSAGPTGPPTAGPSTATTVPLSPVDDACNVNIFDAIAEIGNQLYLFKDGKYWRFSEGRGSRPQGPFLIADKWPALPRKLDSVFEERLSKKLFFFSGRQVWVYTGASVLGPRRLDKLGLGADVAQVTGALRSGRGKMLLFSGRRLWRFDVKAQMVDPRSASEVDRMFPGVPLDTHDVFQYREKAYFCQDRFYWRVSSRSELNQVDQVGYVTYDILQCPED
Sequence of 72 kDa type IV collagenase (P08253 whole entry): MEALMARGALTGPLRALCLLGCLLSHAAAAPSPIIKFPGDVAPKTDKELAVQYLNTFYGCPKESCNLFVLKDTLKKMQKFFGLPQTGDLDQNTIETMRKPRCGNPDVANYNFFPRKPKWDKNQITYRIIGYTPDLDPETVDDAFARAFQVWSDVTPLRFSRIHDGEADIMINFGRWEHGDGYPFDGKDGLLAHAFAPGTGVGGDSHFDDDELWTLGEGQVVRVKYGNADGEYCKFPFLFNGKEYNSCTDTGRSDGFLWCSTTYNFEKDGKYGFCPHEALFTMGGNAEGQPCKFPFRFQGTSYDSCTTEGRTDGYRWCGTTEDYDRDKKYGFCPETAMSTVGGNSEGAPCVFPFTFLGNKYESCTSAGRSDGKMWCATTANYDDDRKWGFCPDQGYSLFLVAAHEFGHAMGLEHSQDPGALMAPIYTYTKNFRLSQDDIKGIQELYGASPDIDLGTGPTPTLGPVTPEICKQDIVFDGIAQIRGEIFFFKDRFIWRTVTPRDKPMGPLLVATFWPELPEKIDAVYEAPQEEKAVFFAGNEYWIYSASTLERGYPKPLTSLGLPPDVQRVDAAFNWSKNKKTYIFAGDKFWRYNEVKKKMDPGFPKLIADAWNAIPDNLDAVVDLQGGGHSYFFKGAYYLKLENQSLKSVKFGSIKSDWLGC

| SMILES | IC50 (NCI-H460) | IC50 (MCF7) | IC50 (MDA-MB-231) | IC50 (A549 [1]) | other results |
| --- | --- | --- | --- | --- | --- |
| CCOP(=O)(OCC)C(Nc1ccc(CC(=O)Oc2cc(/C=C/C(=O)c3ccc(OC)c4c3OC(C)(C)C=C4)ccc2OC)cc1)c1cccc(F)c1 (centres undefined) | 374 nM | 423 nM | 544 nM | 288 nM | – |
| CCOP(=O)(OCC)C(Nc1ccc(CC(=O)Oc2cc(/C=C/C(=O)c3cc(OC)c(OC)c(OC)c3)ccc2OC)cc1)c1ccc([N+](=O)[O-])cc1 (centres undefined) | 423 nM | 507 nM | 570 nM | 328 nM | – |
| CCOP(=O)(OCC)C(Nc1ccc(CC(=O)Oc2cc(/C=C/C(=O)c3cc(OC)c(OC)c(OC)c3)ccc2OC)cc1)c1ccc(OC)cc1 (centres undefined) | 658 nM | 752 nM | 834 nM | 545 nM | – |
| CCOP(=O)(OCC)C(Nc1ccc(CC(=O)Oc2cc(/C=C/C(=O)c3ccc(OC)c4c3OC(C)(C)C=C4)ccc2OC)cc1)c1ccc(F)cc1 (centres undefined) | 500 nM | 567 nM | 692 nM | 392 nM | – |
| CCOP(=O)(OCC)C(Nc1ccc(CC(=O)Oc2cc(/C=C/C(=O)c3cc(OC)c(OC)c(OC)c3)ccc2OC)cc1)c1cccc(F)c1 (centres undefined) | 267 nM | 357 nM | 492 nM | 253 nM | – |
| CCOP(=O)(OCC)C(Nc1ccc(CC(=O)Oc2cc(/C=C/C(=O)c3ccc(OC)c4c3OC(C)(C)C=C4)ccc2OC)cc1)c1ccc([N+](=O)[O-])cc1 (centres undefined) | 469 nM | 554 nM | 643 nM | 368 nM | – |
| CCOP(=O)(OCC)C(Nc1ccc(CC(=O)Oc2cc(/C=C/C(=O)c3ccc(OC)c4c3OC(C)(C)C=C4)ccc2OC)cc1)c1cc(OC)c(OC)c(OC)c1 (centres undefined) | 837 nM | 915 nM | 989 nM | 769 nM | – |
| CCOP(=O)(OCC)C(Nc1ccc(CC(=O)Oc2cc(/C=C/C(=O)c3ccc(OC)c4c3OC(C)(C)C=C4)ccc2OC)cc1)c1cccc(Cl)c1 (centres undefined) | 785 nM | 732 nM | 928 nM | 656 nM | – |
| Cc1ccc2nc(-c3cccc(NC(=O)CCc4ccccc4)c3)[nH]c2c1 | – | – | – | – | IC50 [2]: 36400 nM; IC50 (Stromelysin-1): 46300 nM; IC50 [3]: 28400 nM |
| CC(=O)O[C@H]1C(=O)[C@@]2(C)[C@H]([C@H](OC(=O)c3ccccc3)[C@]3(O)C[C@H](OC(=O)[C@H](O)[C@@H](NC(=O)c4ccccc4)c4ccccc4)C(C)=C1C3(C)C)[C@]1(OC(C)=O)CO[C@@H]1C[C@@H]2O [PACLITAXEL] | 155 nM | 122 nM | 208 nM | 109 nM | IC50 [4]: 95 nM; selectivity ratio [5]: 0.87; IC50 [6]: 114 nM; selectivity ratio [7]: 0.93 |
| COc1ccc(/C=C/C(=O)c2ccc(OC)c3c2OC(C)(C)C=C3)cc1 [MILLEPACHINE] | 7910 nM | 5620 nM | 4290 nM | 5940 nM | – |
| CCOP(=O)(OCC)C(Nc1ccc(CC(=O)Oc2cc(/C=C/C(=O)c3ccc(OC)c4c3OC(C)(C)C=C4)ccc2OC)cc1)c1ccc(OC)cc1 (centres undefined) | 654 nM | 801 nM | 934 nM | 560 nM | – |
| CCOP(=O)(OCC)C(Nc1ccc(CC(=O)Oc2cc(/C=C/C(=O)c3cc(OC)c(OC)c(OC)c3)ccc2OC)cc1)c1cccc(C)c1 (centres undefined) | 385 nM | 414 nM | 574 nM | 309 nM | – |
| CCOP(=O)(OCC)C(Nc1ccc(CC(=O)Oc2cc(/C=C/C(=O)c3cc(OC)c(OC)c(OC)c3)ccc2OC)cc1)c1ccc(OC)c(OC)c1 (centres undefined) | 739 nM | 806 nM | 893 nM | 683 nM | – |
| CCOP(=O)(OCC)C(Nc1ccc(CC(=O)Oc2cc(/C=C/C(=O)c3ccc(OC)c4c3OC(C)(C)C=C4)ccc2OC)cc1)c1ccc(OC)c(OC)c1 (centres undefined) | 731 nM | 822 nM | 936 nM | 608 nM | – |
| CCOP(=O)(OCC)C(Nc1ccc(CC(=O)Oc2cc(/C=C/C(=O)c3cc(OC)c(OC)c(OC)c3)ccc2OC)cc1)c1cccc(OC)c1 (centres undefined) | 465 nM | 667 nM | 721 nM | 379 nM | – |
| CCOP(=O)(OCC)C(Nc1ccc(CC(=O)Oc2cc(/C=C/C(=O)c3ccc(OC)c4c3OC(C)(C)C=C4)ccc2OC)cc1)c1ccccc1 (centres undefined) | 698 nM | 797 nM | 898 nM | 591 nM | – |
| COc1ccc(/C=C/C(=O)c2ccc(OC)c3c2OC(C)(C)C=C3)cc1O | 1070 nM | 1150 nM | 1040 nM | 1220 nM | – |
| CCOP(=O)(OCC)C(Nc1ccc(CC(=O)Oc2cc(/C=C/C(=O)c3cc(OC)c(OC)c(OC)c3)ccc2OC)cc1)c1cc(OC)c(OC)c(OC)c1 (centres undefined) | 840 nM | 915 nM | 952 nM | 712 nM | – |
| COc1ccc(/C=C/C(=O)c2cc(OC)c(OC)c(OC)c2)cc1O | 538 nM | 722 nM | 808 nM | 456 nM | IC50 [4]: 1090 nM; selectivity ratio [5]: 2.4; IC50 [6]: 967 nM; selectivity ratio [7]: 1.34; Activity (Tubulin (Homo sapiens) [8]): Active; Activity (Tubulin (Homo sapiens) [9]): Active; Activity (A549 [10]): 45.16%; viability at 0.5 µM (A549 [11]): 69.5%; Activity (A549 [12]): 24.49%; Activity (A549 [13]): 5.23%; Activity (A549 [14]): 0.84%; Activity (A549 [15]): 16.56%; Activity (A549 [16]): 69.1%; Activity (A549 [17]): 14.34%; Activity (A549 [18]): 40.88%; Activity (A549 [19]): 54.64%; inhibition in vivo at 20 mg/kg (A549 [20]): 64.7% |
| COc1cccc2c1C(=O)c1c(O)c3c(c(O)c1C2=O)C[C@@](O)(C(=O)CO)C[C@@H]3O[C@H]1C[C@H](N)[C@H](O)[C@H](C)O1 [DOXORUBICIN] | – | – | – | – | IC50 [4]: 1320 nM; IC50 [6]: 973 nM |
| CCOP(=O)(OCC)C(Nc1ccc(CC(=O)Oc2cc(/C=C/C(=O)c3cc(OC)c(OC)c(OC)c3)ccc2OC)cc1)c1ccc(Br)cc1 (centres undefined) | 762 nM | 872 nM | 939 nM | 609 nM | – |
| CCOP(=O)(OCC)C(Nc1ccc(CC(=O)Oc2cc(/C=C/C(=O)c3ccc(OC)c4c3OC(C)(C)C=C4)ccc2OC)cc1)c1ccc(Br)cc1 (centres undefined) | 780 nM | 829 nM | 959 nM | 741 nM | – |
| CCOP(=O)(OCC)C(Nc1ccc(CC(=O)Oc2cc(/C=C/C(=O)c3ccc(OC)c4c3OC(C)(C)C=C4)ccc2OC)cc1)c1ccc(C)cc1 (centres undefined) | 562 nM | 765 nM | 799 nM | 484 nM | – |
| CCOP(=O)(OCC)C(Nc1ccc(CC(=O)Oc2cc(/C=C/C(=O)c3ccc(OC)c4c3OC(C)(C)C=C4)ccc2OC)cc1)c1ccc(Cl)cc1 (centres undefined) | 758 nM | 808 nM | 978 nM | 709 nM | – |
| CCOP(=O)(OCC)C(Nc1ccc(CC(=O)Oc2cc(/C=C/C(=O)c3ccc(OC)c4c3OC(C)(C)C=C4)ccc2OC)cc1)c1cccc([N+](=O)[O-])c1 (centres undefined) | 299 nM | 332 nM | 454 nM | 206 nM | – |
| CCOP(=O)(OCC)C(Nc1ccc(CC(=O)Oc2cc(/C=C/C(=O)c3cc(OC)c(OC)c(OC)c3)ccc2OC)cc1)c1ccc(C)cc1 (centres undefined) | 452 nM | 540 nM | 668 nM | 399 nM | – |
| CCOP(=O)(OCC)C(Nc1ccc(CC(=O)Oc2cc(/C=C/C(=O)c3cc(OC)c(OC)c(OC)c3)ccc2OC)cc1)c1ccccc1 (centres undefined) | 704 nM | 828 nM | 940 nM | 632 nM | – |
| CCOP(=O)(OCC)C(Nc1ccc(CC(=O)Oc2cc(/C=C/C(=O)c3cc(OC)c(OC)c(OC)c3)ccc2OC)cc1)c1cccc(Cl)c1 (centres undefined) | 845 nM | 818 nM | 901 nM | 649 nM | – |
